Reference: patent US12459940B2, “Oxazole compound as multi-targeted inhibitor of IRAK4 and BTK” (SHANGHAI FOSUN PHARMACEUTICAL INDUSTRIAL DEVELOPMENT CO., …, priority 2019, dated 2025)
Where two headings read alike, the source gives them in different places.

Experiments:
[1] = target: T1, human IRAK4 (Homo sapiens, UniProt Q9NWZ3); experiment: In vitro IRAK4 kinase activity, 33P isotope-labeled kinase activity assay (Reaction Biology Corp); assay type: biochemical
T1 construct: purchased Reaction Biology Corp
T1 sequence (Q9NWZ3 1-460): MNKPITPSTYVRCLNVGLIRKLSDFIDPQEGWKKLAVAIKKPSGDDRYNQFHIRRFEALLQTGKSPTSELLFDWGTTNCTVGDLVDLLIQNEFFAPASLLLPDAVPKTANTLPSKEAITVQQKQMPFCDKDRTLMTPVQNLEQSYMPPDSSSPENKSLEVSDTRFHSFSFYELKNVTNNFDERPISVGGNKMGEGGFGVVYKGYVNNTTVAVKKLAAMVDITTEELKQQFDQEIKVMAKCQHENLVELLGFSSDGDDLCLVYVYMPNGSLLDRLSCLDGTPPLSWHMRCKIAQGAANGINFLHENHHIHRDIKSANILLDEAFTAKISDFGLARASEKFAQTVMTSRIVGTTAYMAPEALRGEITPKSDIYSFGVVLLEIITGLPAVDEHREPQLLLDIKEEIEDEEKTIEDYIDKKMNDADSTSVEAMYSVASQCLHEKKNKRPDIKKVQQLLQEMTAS
Description: The IC50 values were determined using ^33P isotope-labeled kinase activity assay (Reaction Biology Corp) to evaluate the inhibitory ability of the tested compounds on human IRAK4.
(§1) Buffer conditions: 20 mM Hepes (pH 7.5), 10 mM MgCl2, 1 mM EGTA, 0.02% Brij35, 0.02 mg/mL BSA, 0.1 mM Na3VO4, 2 mM DTT, 1% DMSO.
Test procedure: At room temperature, the tested compound was dissolved in DMSO to prepare a 10 mM solution for later use. The substrate was dissolved in a newly prepared buffer solution, and the tested IRAK4 kinase was added thereto and mixed evenly. The DMSO solution dissolved with the tested compound was added to the above reaction mixture mixed evenly using acoustic technique (Echo 550). After incubation for 15 minutes, ^33P-ATP was added to initiate the reaction.

[2] = test system: TNF-α production in THP-1 cells; experiment: THP-1 cytological TNFa ELISA assay (LPS-stimulated); assay type: cell-based; conditions: Homo sapiens, TNF-α in culture supernatant, 150 ng/mL LPS, 18 hours
Description: THP-1 human acute […] leukemia cells were purchased from ATCC (Cat #TIB-202) and cultured at 37° C. in 5% CO2 incubator. The composition of medium was RPMI1640 (Gibco, Cat #22400-105), and the supplementary compositions were 10% FBS (Gibco, Cat #10091148); 1% PenStrep (Gibco, Cat #15140); 0.05 mM 2-Mercaptoethanol (Sigma, Cat #M6250).
TNF-α Elisa kit was used to detect the content of TNF-α in cell culture supernatant samples. TNF-α was produced by stimulating THP-1 cells with 150 ng/mL LPS (Sigma, Cat #L6529).
THP-1 cells cultured normally at logarithmic growth stage were seeded in a 96-well plate (Corning #3599) at a certain concentration (1*10^5/100 μL) and then put into a cell incubator for incubation. After two hours, 16.7 μL of different concentrations of the compound to be tested (8*final concentration) were added and incubated in an incubator. After one hour, 16.7 μL of 1200 ng/mL LPS was added and incubated in an incubator. After 18 hours, the culture supernatant samples were collected by centrifugation, and the content of TNF-α could be detected by TNF-α Elisa kit. Finally, OD signals (OD450-OD570) were read on envision board reader.
The OD450-OD570 signal value was converted into a percentage inhibition rate. Inhibition rate %=(ZPE−sample)/(ZPE−HPE)*100.
“HPE” refers to the OD450-OD570 signal value of the control well without LPS stimulated cells, and “ZPE” refers to the OD450-OD570 signal value of the control well with LPS stimulated cells. The IC50 value of the compound was calculated by XLFit in the excel add-in. Y=Bottom+(Top−Bottom)/(1+(IC50/X)^HillSlope). Equation: […]

[3] = target: T2, human BTK (Homo sapiens, UniProt Q06187); experiment: In vitro BTK kinase activity, 33P isotope-labeled kinase activity assay (Reaction Biology Corp); assay type: biochemical; conditions: 33P-ATP, 2 hours at room temperature
T2 construct: purchased Reaction Biology Corp
T2 sequence (Q06187 whole entry): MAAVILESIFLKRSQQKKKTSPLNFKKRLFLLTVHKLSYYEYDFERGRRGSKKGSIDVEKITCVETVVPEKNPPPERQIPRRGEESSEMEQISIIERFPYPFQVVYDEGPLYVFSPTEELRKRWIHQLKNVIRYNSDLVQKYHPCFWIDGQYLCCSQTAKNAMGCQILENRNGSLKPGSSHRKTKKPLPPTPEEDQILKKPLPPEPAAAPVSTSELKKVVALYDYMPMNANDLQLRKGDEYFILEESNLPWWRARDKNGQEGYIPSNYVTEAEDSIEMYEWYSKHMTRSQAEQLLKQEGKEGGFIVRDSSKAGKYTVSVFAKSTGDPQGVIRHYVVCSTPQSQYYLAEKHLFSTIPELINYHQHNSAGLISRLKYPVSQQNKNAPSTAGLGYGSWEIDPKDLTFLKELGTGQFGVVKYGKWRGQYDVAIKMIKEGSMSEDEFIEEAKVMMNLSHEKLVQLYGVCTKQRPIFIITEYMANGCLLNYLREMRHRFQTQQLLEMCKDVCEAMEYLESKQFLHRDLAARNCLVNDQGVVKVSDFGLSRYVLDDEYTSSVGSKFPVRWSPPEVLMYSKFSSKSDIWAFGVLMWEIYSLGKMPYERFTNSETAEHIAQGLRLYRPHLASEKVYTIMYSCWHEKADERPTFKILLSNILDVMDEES
Description: The IC50 values were determined using ^33P isotope-labeled kinase activity assay (Reaction Biology Corp) to evaluate the inhibitory ability of the tested compounds on human BTK.
as §1
Test procedure: At room temperature, the tested compound was dissolved in DMSO to prepare a 10 mM solution for later use. The substrate was dissolved in a newly prepared buffer solution, and the tested BTK kinase was added thereto and mixed evenly. The compound dissolved in DMSO was added to the kinase reaction mixture through Echo 550 (Acoustic technology; Nanoliter range). After incubation for 20 minutes at room temperature, ^33P-ATP was added to initiate the reaction. The reaction was carried out at room temperature for 2 hours, and the radioactivity of the reaction liquid point was detected by filtration-binding method with P81 ion exchange filter paper. The kinase activity data were expressed by comparing the kinase activity of the group containing the tested compound with the kinase activity of the blank group (only containing DMSO), and the IC50 value was obtained by curve fitting by Prism4 software (GraphPad), the experimental results are shown in Table 10.

[4] = test system: OCI-LY10 human B-cell lymphoma cells; experiment: OCI-LY10 cell proliferation inhibition (CellTiter-Glo); assay type: cell-based; conditions: OCI-Ly10, 72 h, treated for 3 days
Description: OCI-LY10 human B-cell lymphoma cells were cultured in a 37° C., 5% CO2 incubator. The composition of medium was IMDM (GIBCO, Cat #12440053); the supplementary compositions were 20% FBS (Hyclone, Cat #SH30084.03); 1% PenStrep (Thermo, Cat #SV30010).
The tumor cell lines OCI-LY10 and TMD8 were used to detect the effect of the compound on inhibiting tumor cell proliferation in vitro. The tumor cell line was cultured in a 37° C., 5% CO2 incubator according to the culture conditions shown, and passaged regularly, then the cells in the logarithmic growth phase were taken, counted, and spread in a 96-well plate (the cells in each well were adjusted to an appropriate concentration, a total of […] per well was added). After incubating overnight in a 37° C., 5% CO2 incubator, drugs with different concentration gradients (10 μL of drug solution was added) were added and treated for 3 days, then 50 μL of CellTiter-Glo working solution was added to each well, and the cell plate was wrapped with aluminum foil to avoid light. The culture plate was shaken on an orbital shaker for 2 minutes to induce cell lysis, and placed at room temperature for 10 minutes to stabilize the luminescence signal, then the luminescence signal was detected on the 2104 EnVision plate reader.
The Inhibition rate (IR) of the tested compound was calculated using the following formula: IR (%)=(1−(RLU compound−RLU blank control)/(RLU solvent control−RLU blank control))*100%.
The inhibition rates of different concentrations of the compounds were calculated in Excel, and then the inhibition curves were made by GraphPad Prism software and the related parameters were calculated, including the minimum inhibition rate, the maximum inhibition rate and IC50.

[5] = 33P-ATP, 120 minutes at room temperature, read-out: IRAK4/IC50

SMILES: Cc1cc(-c2nc(C(=O)Nc3cn4cc(CCC(C)(C)O)nc4cc3N3CCOCC3)co2)ccn1 [WX002]
- IC50 [1]: 1.2 nM

SMILES: Cc1cc(-c2nc(C(=O)Nc3cn4cc(CCC(C)(C)O)nc4cc3N3CCNCC3)co2)ccn1 [WX003]
- IC50 [2]: 557 nM
- IC50 [1]: 2.2 nM

SMILES: COC(=O)N1CCN(c2cc3nc(CCC(C)(C)O)cn3cc2NC(=O)c2coc(-c3ccnc(C)c3)n2)CC1 [WX004]
- IC50 [2]: 77 nM
- IC50 [1]: 1.3 nM

SMILES: CC(=O)N1CCN(c2cc3nc(CCC(C)(C)O)cn3cc2NC(=O)c2coc(-c3ccnc(C)c3)n2)CC1 [WX005]
- IC50 [2]: 256 nM
- IC50 [1, 5]: 1.1 nM

SMILES: Cc1cc(-c2nc(C(=O)Nc3cn4cc(CCC(C)(C)O)nc4cc3N3CCC(O)CC3)co2)ccn1 [WX006]
- IC50 [3]: 47.5 nM
- IC50 [2]: 107 nM
- IC50 [1]: 1.2 nM

SMILES: Cc1cc(-c2nc(C(=O)Nc3cn4cc(CCC(C)(C)O)nc4cc3C3CC3)co2)ccn1 [WX007]
- IC50 [2]: 240 nM
- IC50 [1, 5]: 2 nM

SMILES: Cc1cc(-c2nc(C(=O)Nc3cn4cc(CCC(C)(C)O)nc4cc3N3CCC(C)(C)CC3)co2)ccn1 [WX008]
- IC50 [3]: 4.6 nM
- IC50 [1, 5]: 2.1 nM

SMILES: Cc1cc(-c2nc(C(=O)Nc3cn4cc(CCC(C)(C)O)nc4cc3N3CCC(F)(F)CC3)co2)ccn1 [WX009]
- IC50 [3]: 46 nM
- IC50 [1]: 0.7 nM

SMILES: CC(C)(O)CCc1cn2cc(NC(=O)c3coc(-c4ccnc(C(F)(F)F)c4)n3)c(N3CCCCC3)cc2n1 [WX010]
- IC50 [2]: 332 nM
- IC50 [1, 5]: 2.4 nM

SMILES: CC(C)c1cc(-c2nc(C(=O)Nc3cn4cc(CCC(C)(C)O)nc4cc3N3CCCCC3)co2)ccn1 [WX011]
- IC50 [3]: 23.6 nM
- IC50 [2]: 140 nM
- IC50 [1]: 1.5 nM

SMILES: CC(C)(O)CCc1cn2cc(NC(=O)c3coc(-c4ccnc(C5CC5)c4)n3)c(N3CCCCC3)cc2n1 [WX012]
- IC50 [3]: 6.9 nM
- IC50 [1, 5]: 1 nM

SMILES: Cc1cc(-c2nc(C(=O)Nc3cn4cc(CCC(C)(C)O)nc4cc3N3CCC(CO)CC3)co2)ccn1 [WX013]
- IC50 [3]: 1.4 nM
- IC50 [1, 5]: 0.2 nM

SMILES: Cc1cc(-c2nc(C(=O)Nc3cn4cc(CCC(C)(C)O)nc4cc3N3CCC(CN)CC3)co2)ccn1 [WX014]
- IC50 [3]: 25.7 nM
- IC50 [1]: 0.9 nM

SMILES: CC(C)(O)CCc1cn2cc(NC(=O)c3coc(-c4ccnc(C#N)c4)n3)c(N3CCCCC3)cc2n1 [WX015]
- IC50 [3]: 6.4 nM
- IC50 [1]: 0.4 nM

SMILES: Cc1cc(-c2nc(C(=O)Nc3cn4cc(CCC(=O)O)nc4cc3N3CCC(F)(F)CC3)co2)ccn1 [WX017]
- IC50 [2]: 321 nM
- IC50 [1, 5]: 1.6 nM

SMILES: Cc1cc(-c2nc(C(=O)Nc3cn4cc(CCC(=O)O)nc4cc3N3CCCCC3)co2)ccn1 [WX018]
- IC50 [3]: 47.5 nM
- IC50 [2]: 104 nM
- IC50 [1]: 0.9 nM

SMILES: Cc1cc(-c2nc(C(=O)Nc3cn4cc(CCC(=O)O)nc4cc3N3CCC(CO)CC3)co2)ccn1 [WX020]
- IC50 [3]: 8.5 nM
- IC50 [1]: 0.5 nM

SMILES: Cc1cc(-c2nc(C(=O)Nc3cn4cc(CCC(C)(C)O)nc4cc3C3CCCCC3)co2)ccn1 [WX022]
- IC50 [3]: 43.1 nM
- IC50 [1]: 0.7 nM

SMILES: Cc1cc(-c2nc(C(=O)Nc3cn4cc(CCC(=O)O)nc4cc3-c3cccnc3)co2)ccn1 [WX023]
- IC50 [1, 5]: 8.4 nM

SMILES: Cc1cc(-c2nc(C(=O)Nc3cn4cc(CCC(C)(C)O)nc4cc3-c3ccccc3F)co2)ccn1 [WX024]
- IC50 [4]: 208 nM
- IC50 [3]: 30.5 nM
- IC50 [2]: 13 nM
- IC50 [1]: 0.7 nM

SMILES: Cc1cc(-c2nc(C(=O)Nc3cn4cc(CCC(C)(C)O)nc4cc3-c3cccc(F)c3)co2)ccn1 [WX025]
- IC50 [4]: 94 nM
- IC50 [3]: 21.8 nM
- IC50 [2]: 21 nM
- IC50 [1]: 0.7 nM

SMILES: Cc1cc(-c2nc(C(=O)Nc3cn4cc(CCC(C)(C)O)nc4cc3-c3ccc(F)cc3)co2)ccn1 [WX026]
- IC50 [4]: 349 nM
- IC50 [3]: 30.7 nM

SMILES: Cc1cc(-c2nc(C(=O)Nc3cn4cc(CCC(C)(C)O)nc4cc3-c3ccccc3C(N)=O)co2)ccn1 [WX027]
- IC50 [1, 5]: 11 nM

SMILES: Cc1cc(-c2nc(C(=O)Nc3cn4cc(CCC(C)(C)O)nc4cc3-c3c(F)cccc3F)co2)ccn1 [WX029]
- IC50 [4]: 289 nM
- IC50 [3]: 24.2 nM

SMILES: Cc1cc(-c2nc(C(=O)Nc3cn4cc(CCC(C)(C)O)nc4cc3-c3ccc(Cl)cc3)co2)ccn1 [WX030]
- IC50 [4]: 209 nM

SMILES: Cc1cc(-c2nc(C(=O)Nc3cn4cc(CCC(C)(C)O)nc4cc3-c3cccc(Cl)c3)co2)ccn1 [WX031]
- IC50 [4]: 96 nM
- IC50 [3]: 39.6 nM

SMILES: Cc1cc(-c2nc(C(=O)Nc3cn4cc(CCC(C)(C)O)nc4cc3-c3cccs3)co2)ccn1 [WX032]
- IC50 [4]: 386 nM
- IC50 [3]: 26.5 nM

SMILES: [2H]c1c([2H])c([2H])c(-c2cc3nc(CCC(C)(C)O)cn3cc2NC(=O)c2coc(-c3ccnc(C)c3)n2)c([2H])c1[2H] [WX033]
- IC50 [3]: 20.2 nM
- IC50 [1, 5]: 1.6 nM

SMILES: Cc1cc(-c2nc(C(=O)Nc3cn4cc(CCC(=O)O)nc4cc3-c3ccccc3)co2)ccn1 [WX039]
- IC50 [3]: 29 nM
- IC50 [1, 5]: 1 nM

SMILES: Cc1cc(-c2nc(C(=O)Nc3cn4cc(CCS(C)(=O)=O)nc4cc3N3CCCCC3)co2)ccn1 [WX042]
- IC50 [3]: 3.8 nM

SMILES: CC(C)(O)CCc1cn2cc(NC(=O)c3coc(-c4ccnc(C(N)=O)c4)n3)c(N3CCCCC3)cc2n1 [WX044]
- IC50 [1, 5]: 1.9 nM

SMILES: Cc1cc(-c2nc(C(=O)Nc3cn4cc(CCC(C)(C)O)nc4cc3N3CCC(C(=O)O)CC3)co2)ccn1 [WX046]
- IC50 [3]: 43.1 nM
- IC50 [1, 5]: 2.5 nM
